# Patent US4732983A, “Pyschotropic polycyclic imides” (American Home Products Corporation, priority 1987, dated 1988)
# Read-outs that look alike come from different tables or passages of the source.
# Key:
# [1] = test system: CF-1 mice (Charles River); assay: Antagonism of apomorphine-induced stereotyped behavior and climbing; type: in vivo, mouse; details: for ED50: Mus musculus, po; for ED50 / Apomorphine Antagonism ED50, stereotypy / Apomorphine Antagonism ED50, climbing: apomorphine 1 mg/kg s.c.; for Apomorphine Antagonism ED50, stereotypy / Apomorphine Antagonism ED50, climbing: p.o.; for ratio of the ED50 for stereotyped behavior to the ED50 for climbing: apomorphine-induced, standard antipsychotic drugs
# Description: Readings are repeated every five minutes during a thirty minute test session. […] The ratio of the ED50 for stereotyped behavior to the ED50 for climbing is calculated.
# D-2 dopamine receptor = biological target: T1, D-2 dopamine receptor (Rattus norvegicus, UniProt P61169); assay: [3H]spiroperidol binding inhibition, homogenized limbic brain tissue
# T1 construct: homogenized limbic brain tissue is incubated with; from tissue; host or cells: homogenized limbic brain tissue
# [2] = test system: male CD rats (Charles River); assay: Conditioned avoidance, shelf-jump response; type: in vivo, rat; details: 40 mg/kg i.p., single dose
# Description: The rat can avoid the electric shock by jumping to an exposed shelf (shelf-jump response). A response during the initial warning tone is considered an avoidance response, while a response during shock delivery is considered as escape response. […] The compounds of this invention were tested at a single dose (40 mg./kg. i.p.) in this procedure and were rated relative to their inhibition of conditioned avoidance responding.
# rats = assay: Conditioned avoidance, discrete trial (lever press substituted for shelf-jump), Avoidance Block; type: in vivo, rat; details: for ED50: Rattus norvegicus, po, read-out: Conditioned Avoidance Discrete Trial AB50 (Avoidance Block); for Conditioned Avoidance Discrete Trial AB50 (Avoidance Block): p.o.
# [3] = biological target: T2, 5-HT1A serotonin receptor (Rattus norvegicus, UniProt P19327); assay: Inhibition of [3H]8-OH DPAT binding
# T2 construct: 44: 1685-1696, 1985; from tissue
# T2 sequence (P19327 1-422): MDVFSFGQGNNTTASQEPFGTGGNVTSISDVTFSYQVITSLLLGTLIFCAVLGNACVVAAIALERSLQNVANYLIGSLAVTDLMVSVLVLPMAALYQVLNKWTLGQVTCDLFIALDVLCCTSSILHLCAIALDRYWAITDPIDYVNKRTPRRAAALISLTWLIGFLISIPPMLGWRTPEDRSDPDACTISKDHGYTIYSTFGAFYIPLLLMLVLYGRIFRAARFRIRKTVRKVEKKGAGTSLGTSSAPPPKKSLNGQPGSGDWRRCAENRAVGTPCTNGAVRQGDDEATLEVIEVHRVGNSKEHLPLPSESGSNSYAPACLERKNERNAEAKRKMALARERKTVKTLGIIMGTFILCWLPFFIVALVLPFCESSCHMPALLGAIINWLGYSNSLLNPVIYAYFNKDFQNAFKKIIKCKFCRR
# [4] = read-out: Apomorphine Antagonism ED50, climbing
# T1 sequence (P61169 whole entry): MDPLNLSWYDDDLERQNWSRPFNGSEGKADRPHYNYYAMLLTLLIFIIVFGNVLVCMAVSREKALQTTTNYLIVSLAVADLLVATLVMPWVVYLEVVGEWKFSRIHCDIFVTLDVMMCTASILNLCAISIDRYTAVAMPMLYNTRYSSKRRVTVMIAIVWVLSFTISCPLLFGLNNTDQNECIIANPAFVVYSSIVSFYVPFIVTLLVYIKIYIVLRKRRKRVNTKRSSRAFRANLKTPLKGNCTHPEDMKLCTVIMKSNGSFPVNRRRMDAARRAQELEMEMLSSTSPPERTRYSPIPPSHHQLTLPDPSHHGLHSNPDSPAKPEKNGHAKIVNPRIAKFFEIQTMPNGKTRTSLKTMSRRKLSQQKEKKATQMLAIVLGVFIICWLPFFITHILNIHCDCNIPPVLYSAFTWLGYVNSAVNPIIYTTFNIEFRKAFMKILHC
Compound,Ki [3] [nM],inhibition at 1 µM (D-2 dopamine receptor) [%],"Apomorphine Antagonism ED50, stereotypy [1]",Conditioned Avoidance Shelf-Jump (inhibition of conditioned avoidance responding) [2],"Apomorphine Antagonism ED50, climbing [1]",Conditioned Avoidance Discrete Trial AB50 (Avoidance Block) (rats),further results
"O=C1C2C(C(=O)N1CCCCN1CCN(c3ncccn3)CC1)C1C3CC4C(C32)C41 (stereo not drawn) [Example 1, Endo-2-[4-[4-(2-pyrimidinyl)-1-piperazinyl]butyl]octahydro-4,5,7-metheno-1H-pentaleno[1,2-c]pyrrole-1,3(2H)-dione]",12.8,,inactive,~ 80%,,,"ED50 [1, 4]: 17 mg/kg; [3H] Spiroperidol Binding Inhibition, % at 1 μM (D-2 dopamine receptor; 1 µM): 76%; ED50 (rats): 55.7 mg/kg"
"O=C1C2C3CC4C2C4C3C(=O)N1CCCCN1CCN(c2ncccn2)CC1 [Example 7, 2-[4-[4-(2-Pyrimidinyl)-1-piperazinyl]butyl]hexahydro-4,6,7-metheno-1H-2-pyridine-1,3-(2H)-dione]",16,51,inactive,~ 80%,inactive,weak,
"O=C1CC2(CCCC2)CC(=O)N1CCCCN1CCN(c2ncccn2)CC1 [buspirone, reference compound]",,,,,,,affinity for 5-HT1A serotonin receptor (in words) ([3]; displacement of [3H]8-OH DPAT): potent affinity
"CN(C)CCCN1c2ccccc2Sc2ccc(Cl)cc21 [chlorpromazine, reference compound]",,,,,,,ratio of the ED50 for stereotyped behavior to the ED50 for climbing [1]: 1.51
"O=C(CCCN1CCC(O)(c2ccc(Cl)cc2)CC1)c1ccc(F)cc1 [haloperidol, reference compound]",,,,,,,ratio of the ED50 for stereotyped behavior to the ED50 for climbing [1]: 1.00
"CSc1ccc2c(c1)N(CCC1CCCCN1C)c1ccccc1S2 (stereo not shown) [thioridazine, reference compound]",,,,,,,ratio of the ED50 for stereotyped behavior to the ED50 for climbing [1]: 1.83
"Exo-2-[4-[4-(6-chloro-2-pyrazinyl)-1-piperazinyl]butyl]octahydro-4,57-metheno-1H-pentaleno[1,2-c]pyrrole-1,3-(2H)-dione [Example 4]",,,inactive,> 20%,inactive,56.16 mg/kg,"[3H] Spiroperidol Binding Inhibition, % at 1 μM (D-2 dopamine receptor): 54%; Inhibition of [3H] 8-OH DPAT Binding, % at 1 μM ([3]; 1 μM): 76%"

# Further lines, with some results ahead:
Ki [3] [nM],inhibition at 1 µM (D-2 dopamine receptor) [%],Compound,"Apomorphine Antagonism ED50, stereotypy [1]",Conditioned Avoidance Shelf-Jump (inhibition of conditioned avoidance responding) [2],"Apomorphine Antagonism ED50, climbing [1]",Conditioned Avoidance Discrete Trial AB50 (Avoidance Block) (rats),further results
40,,"O=C1C2C(C(=O)N1CCCCN1CCN(c3ncccn3)CC1)C1C3CC4C(C32)C41 (stereo not drawn) [Example 2, Exo-2-[4-[4-(2-pyrimidinyl)-1-piperazinyl]butyl]octahydro-4,5,7-metheno-1H-pentaleno[1,2-c]pyrrole-1,3(2H)-dione]",inactive,> 20%,15.61 mg/kg,active,"[3H] Spiroperidol Binding Inhibition, % at 1 μM (D-2 dopamine receptor; 1 µM): 0%"
41.9,44,"O=C1C2C(C(=O)N1CCCCN1CCN(c3cncc(Cl)n3)CC1)C1C3CC4C(C32)C41 (stereo not drawn) [Example 3, Endo-2-[4-[4-(6-chloro-2-pyrazinyl)-1-piperazinyl]butyl]octahydro-4,5,7-metheno-1H-pentaleno[1,2-c]pyrrole-1,3-(2H)-dione]",inactive,> 20%,,,"ED50 [1, 4]: 19 mg/kg; ED50 (rats): 46.8 mg/kg"
94,25,"O=C1C2C(C(=O)N1CCCCN1CCN(c3cnccn3)CC1)C1C3CC4C(C32)C41 (stereo not drawn) [Example 5, Endo-2-[4-[4-(2-pyrazinyl)-1-piperazinyl]butyl]octahydro-4,5,7-metheno-1H-pentaleno[1,2-c]pyrrole-1,3-(2H)-dione]",inactive,~ 80%,inactive,inactive,
51,29,"O=C1C2C3CC4C2C4C3C(=O)N1CCCCN1CCN(c2cncc(Cl)n2)CC1 [Example 6, 2-[4-[4-(6-Chloro-2-pyrazinyl)-1-piperazinyl]butyl]hexahydro-4,6,7-metheno-1H-2-pyridine-1,3-(2H)-dione]",,~ 80%,,active,"ED50 [1, 4]: 1.74 mg/kg; ED50 ([1]; read-out: Apomorphine Antagonism ED50, stereotypy): 40.5 mg/kg"
